Experimental data: US20250295668A1, “METHODS FOR INDUCING COLANIC ACID BIOSYNTHESIS” (priority 2024, published 2025)

Tested on: MG1655 E. coli
Test: Colanic acid production in MG1655 commensal E. coli
Assay type: cell-based
Details: MG1655, low-dose cephaloridine, 37° C.
Description: The desired bacterial strain was first inoculated and cultured in M9 minimum medium overnight at 37° C. to obtain the seeding culture. The OD 600 was measured, and the seeding bacteria were diluted to OD600=0.02 in M9 minimum medium for another 16 hours. After the incubation, bacterial cultures were collected in 50 mL tubes, spun down at 4,000 g at 4° C. for 30 min, filtered, and 25 mL of supernatant was collected per 50 ml conical tube. Ice-cold 100% ethanol (EtOH) was added to make a final 50% EtOH solution for precipitation, and the mixture was kept at 4° C. overnight. Once precipitation occurred, the liquid was carefully removed after centrifugation at 4,000 g at 4° C. for 50 min. The pellet was washed once with cold 80% EtOH and then air-dried in a hood. The pellet from every 50 mL culture was resuspended in 500 μL distilled H2O. The solution was sonicated for 60 minutes at 37° C., followed by centrifugation at 4000 g at 4° C. for 10 minutes. […] The fucose quantification assay was then carried out using a K-FUCOSE kit (Megazyme) according to the manufacturer's protocol.
MG1655, a human-derived commensal K12 strain, was treated with a low dose of cephaloridine at 37° C., which induced colanic acid production (FIG. 3A). […] The luminal content of mice ileum was harvested after 3 hours of cephaloridine administration and were imaged for fluorescence. […]

O=C(Cc1cccs1)N[C@@H]1C(=O)N2C(C(=O)[O-])=C(C[n+]3ccccc3)CS[C@H]12 [cephaloridine]
colanic acid production increase: 3.2 fold
